Literature values in patent publication US20100041622A1, “Compositions containing aminoalkanes and aminoalkane derivatives” (priority 2008, published 2010).

Test system: not given
Conditions: hydrophilic-lipophilic balance value, known values

Row | Compound | HLB
1 | CCCCCCCCCCCCCCCCCC(=O)OCC(O)CO (centres unmarked) [Glyceryl Stearate] | 3.5
2 | Nonoxynol-9 | 12.9
3 | PEG-4 lauryl ether | 9.7
4 | PEG-100 Stearate | 18.8
5 | Phosphatidylcholine | 7.6
6 | Sorbitan Palmitate | 6.7
7 | Sorbitan monostearate | 4.7

Test system: vasoconstrictor activity
Conditions: see U.S. Pat. No. 2,350,318

Row | Compound | vasoconstrictor activity compared to ephedrine or amphetamine
8 | CCC(C)CC(C)N (centres unmarked) [2-amino-4-methylhexane] | greater vasoconstrictor activity

Test system: vasoconstrictor activity (blood pressure of pithed animal subject)
Conditions: average epinephrine equivalent per 1 mg of sulfate derivative

Row | Compound | Epinephrine equivalent (micrograms (μg)) of 1 mg of the sulfate salt of the aminoalkane
9 | CC(C)C(C)CCN (centres unmarked) [1-amino-3,4-dimethylpentane] | 1.720 µg
10 | CC(C)CC(C)CCN (centres unmarked) [1-amino-3,5-dimethylhexane] | 0.660 µg
11 | CC(C)CCN [1-amino-3-methyl butane] | 0.238 µg
12 | CCC(C)CCN (centres unmarked) [1-amino-3-methyl pentane] | 0.193 µg
13 | CCCCC(C)CCN (centres unmarked) [1-amino-3-methylheptane] | 1.230 µg
14 | CCCC(C)CCN (centres unmarked) [1-amino-3-methylhexane] | 0.108 µg
15 | CC(C)CCCN [1-amino-4-methyl pentane] | 0.530 µg
16 | CCCCCCCN [1-amino-heptane] | 0.276 µg
17 | CCCCCCN [1-amino-hexane] | 0.766 µg
18 | CCCCCCCCN [1-amino-octane] | nil
19 | CCCCCN [1-amino-pentane] | 0.210 µg
20 | CC(C)CCC(C)C(C)N (centres unmarked) [2-amino-3,6-dimethylheptane] | 0.910 µg
21 | CCCCCC(O)C(C)N (centres unmarked) [2-amino-3-hydroxy-octane] | 0.122 µg
22 | CCCCC(C)C(C)N (centres unmarked) [2-amino-3-methylheptane] | 0.530 µg
23 | CCCC(C)C(C)N (centres unmarked) [2-amino-3-methylhexane] | 0.858 µg
24 | CC(N)CC(C)(C)C (centres unmarked) [2-amino-4,4-dimethylpentane] | 0.083 µg
25 | CC(N)CC(C)CC(C)(C)C (centres unmarked) [2-amino-4,6,6-trimethylheptane] | nil
26 | CC(C)CC(C)CC(C)N (centres unmarked) [2-amino-4,6-dimethylheptane] | 0.193 µg
27 | CCCCCCC(C)CC(C)N (centres unmarked) [2-amino-4-methyldecane] | 0.242 µg
28 | CCCC(C)CC(C)N (centres unmarked) [2-amino-4-methylheptane] | 0.786 µg

Row | Compound | Epinephrine equivalent (micrograms (μg)) of 1 mg of the sulfate salt of the aminoalkane
29 | CCC(C)CC(C)N (centres unmarked) [2-amino-4-methylhexane] | 3.520 µg
30 | CCCCC(C)CC(C)N (centres unmarked) [2-amino-4-methyloctane] | 0.475 µg
31 | CC(C)CC(C)N (centres unmarked) [2-amino-4-methylpentane] | 0.840 µg
32 | CCC(CC)CCC(C)N (centres unmarked) [2-amino-5-ethylheptane] | 0.358 µg
33 | CCC(C)CCC(C)N (centres unmarked) [2-amino-5-methylheptane] | 0.980 µg
34 | CC(C)CCC(C)N (centres unmarked) [2-amino-5-methylhexane] | 1.560 µg
35 | C=C(C)CCC(C)N (centres unmarked) [2-amino-5-methylhexene-5] | 0.504 µg
36 | CC(C)CCCC(C)N (centres unmarked) [2-amino-6-methylheptane] | 2.620 µg
37 | CC(C)=CCCC(C)N (centres unmarked) [2-amino-6-methylheptene-5] | 0.391 µg
38 | C=CCCC(C)N (centres unmarked) [2-amino-hexene-5] | 0.193 µg
39 | CCCCCCC(C)N (centres unmarked) [2-amino-octane] | 0.510 µg
40 | CCCC(C)N (centres unmarked) [2-amino-pentane] | 0.395 µg
41 | CCCCCC(C)N (centres unmarked) [2-aminoheptane] | 3.100 µg
42 | CCCCC(C)N (centres unmarked) [2-aminohexane] | 0.901 µg
43 | CCC(N)CCC(C)C (centres unmarked) [3-amino-6-methylheptane] | nil
44 | CCCCCC(N)CC (centres unmarked) [3-amino-octane] | 0.142 µg
45 | CCCCC(N)CC (centres unmarked) [3-aminoheptane] | 0.149 µg
46 | CC(C)CC(N)CC(C)C [4-amino-2,6-dimethylheptane] | nil
47 | CCCC(N)CCC [4-aminoheptane] | 0.048 µg
